Source: patent US20100216761A1, “NOVEL AZETIDINONES USEFUL AS INHIBITORS OF ELASTASE” (priority 2007, published 2010)
pIC50: −log10 of the molar value. Values joined by “and” are separate entries in the source; they are usually repeats but may differ in a detail not shown here. Equal values may be shown once. Read-outs that look alike come from different tables or passages of the source.

Columns and labels:
CYP-P450 3A4 = molecular target: T1, CYP-P450 3A4 (Homo sapiens, UniProt P08684); experiment: CYP-P450 reversible inhibition, 3A4; assay type: in vitro ADME; conditions: human liver microsomes or recombinant P450 microsomes; fluorescent probe
T1 construct: host or cells: human liver microsomes or recombinant P450 microsomes
Method: (§1) This assay measured the reversible inhibition of the test compounds against three cytochrome P450 isozymes (CYP-P450 3A4, 2C9 and 2D6) in an automated screening formate. […] Cumene hydroperoxide, NADPH or NADPH regenerating systems can be used as electron donors for the P450 catalytic cycle. Control incubations containing no inhibitor or no fluorescent probe were performed to evaluate the 100% and 0% activities, respectively. The activity of P450 enzyme was evaluated in the presence of 0.137, 0.273, 0.547, 1.094, 2.188, 4.375, 8.750, 17.5, 35.0 and 70.0 μM concentrations of the test compounds. Inhibition curves were generated and IC50 values were calculated for each tested compound using standard techniques.

Rat pharmacokinetics = assay type: in vivo, Sprague-Dawley rats; conditions: for Vd / clearance / half-life / AUCN, i.v. dosing @ 1 mpk: iv, 1 mg/kg; for AUCN, p.o. dosing @ 2 mpk: po, 2 mg/kg
Method: As exemplified in Table 7, the in vivo pharmacokinetic profiles for Examples 1 and 3 and the comparator Compound #290 were determined in the rat at the standard screening doses of 1 mpk i.v. and 2 mpk p.o. (Note 10).
Compounds were formulated as their mono-L-malic acid salts at 1 mg/mL in PEG-200:water 70:30 (v:v) and administered to Sprague-Dawley rats (n=2 for i.v. and n=3 for p.o. arms) at a dose of 1 mg/kg i.v. or 2 mgk p.o. (free base equivalent). Blood samples were taken at 0.03, 0.08, 0.25, 0.50, 1, 2, 4, 6, 8 and 24 hours for the i.v. arm and at 0.25, 0.50, 1, 2, 4, 6, 8 and 24 hours for the p.o. arm. The plasma concentrations of test compound at each time point were determined by protein precipitation with acetonitrile followed by liquid chromatography—tandem mass spectrometry versus a standard curve. The PK parameters were calculated using validated techniques known in the literature (see Stedman's Medical Dictionary, 23rd ed.).

CYP-P450 2D6 = molecular target: T2, CYP-P450 2D6 (Homo sapiens, UniProt P10635); experiment: CYP-P450 reversible inhibition, 2D6; assay type: in vitro ADME; conditions: human liver microsomes or recombinant P450 microsomes; fluorescent probe
T2 construct: host or cells: human liver microsomes or recombinant P450 microsomes
Method: as §1

human CYP-3A4 enzyme = experiment: P450 CYP-3A4 induction; assay type: in vitro ADME; conditions: test compound 10 μM vs Rifampicin 10 μM (defined as 100%)
Method: This assay measured the in vitro induction of the human CYP-3A4 enzyme in the presence of 0.37, 1.11, 3.33, 10 and 30 μM test compound in an automated formate. The results are expressed as the relative percent induction measured for test compound at the 10 μM concentration compared to the known inducer standard Rifampicin at 10 μM (defined as 100%). (See Durocher, et. al., Anal. Biochem. 2000, 284, 316 for details of the assay).

CYP3A4 = CYP3A4 (Homo sapiens, UniProt P08684)
Method: This assay measured the pre-incubation time-dependent inhibition of potential CYP-3A4 inhibitors in human liver microsomes using the CYP-3A4 mediated testosterone 6-beta-hydroxylation formate in the presence of test compounds in a semi-automated screening using LC-MS/MS detection. Test compounds are pre-incubated at 37° C. with human liver microsomes (2.5 mg/mL protein) and a NADPH regenerating system for 10, 20, 30 and 40 minutes prior to a ten-fold dilution with a 250 μM solution of testosterone. The diluted reaction is then incubated for 15 minutes at 37° C. The concentration of 6-β-hydroxytestosterone metabolite formed is measured by LC-MS/MS using validated analytical methods. The percent activity remaining is calculated by comparing the amount of marker metabolite formed in the presence of inhibitor compared to no inhibitor control samples at corresponding time points. No inhibitor control samples represent the maximum amount of 6-β-hydroxytestosterone formed under these assay conditions.

[1] = Human liver microsome stability (Assays #1-#4); assay type: in vitro ADME; conditions: substrate 1 μM, 37° C.; for % Left Assay 3 @ 0 min / % Left Assay 3 @ 5 min / % Left Assay 3 @ 10 min / % Left Assay 3 @ 15 min / % Left Assay 3 @ 30 min / % Left Assay 3 @ 60 min / % Left @ 30 min / half-life at 1 μM: protein 0.1 mg/mL; for % Left (+NADPH) @ 0 min / % Left (+NADPH) @ 5 min / % Left (+NADPH) @ 10 min / % Left (+NADPH) @ 15 min / % Left (+NADPH) @ 30 min / % Left (+NADPH) @ 60 min / % Left (−NADPH) @ 0 min / % Left (−NADPH) @ 60 min: Assay #4, protein 1.0 mg/mL; for % Left (−NADPH) @ 0 min / % Left (−NADPH) @ 60 min: −NADPH control; for % Left @ 30 min / half-life at 1 μM: Assay #1; for half-life at 1 μM: human, liver microsomes
Method: The results for Examples 1 and 3 were t112=87 and 32 minutes with 78% and 60% remaining after 30 minutes, respectively, compared to shorter half-lives and lesser amounts left for Examples 2 and 4-6 (see Note 6 for conditions).
Under similar in vitro human liver microsome preparation stability assay conditions at 37° C. for 30 or 60 minutes in a separate head-to-head experiments (Assay #2 and #3) (see Note 6 for conditions) with Examples 1 and 3 and the comparator Compound #290 from U.S. Pat. No. 5,591,737, the amounts left after the 30 minute incubation (with […] microsome protein vs 0.1 mg/mL for Assay #3) were 67, 99 and 79% and for the 60 minute incubation were 94, 73 and 77%, respectively. Similarly, in a third repeat assay (Assay #4 with—NADPH controls) (see Note 6 for conditions), 90 and 72% were remaining for Example 1 and the comparator compound, respectively. […]
Note 6: Human Liver Microsome Assay # 1-3 conditions. • Assay experiment #1: Substrate concentration=1 μM; Protein concentration=0.1 mg/mL; incubation time=30 minutes at 37° C. • Assay experiment #2: Substrate concentration=1 μM; Protein concentration 0.1 mg/mL; incubation time=30 minutes at 37° C. • Assay experiment #3: Substrate concentration=1 μM; Protein concentration=0.1 mg/mL; incubation time=60 minutes at 37° C. • Assay experiment #4: Substrate concentration=1 μM; Protein concentration=1.0 mg/mL; incubation time=60 minutes at 37° C.

CYP-P450 2C9 = molecular target: T3, CYP-P450 2C9 (Homo sapiens, UniProt P11712); experiment: CYP-P450 reversible inhibition, 2C9; assay type: in vitro ADME; conditions: human liver microsomes or recombinant P450 microsomes; fluorescent probe
T3 construct: host or cells: human liver microsomes or recombinant P450 microsomes
Method: as §1

T2 sequence (P10635 whole entry): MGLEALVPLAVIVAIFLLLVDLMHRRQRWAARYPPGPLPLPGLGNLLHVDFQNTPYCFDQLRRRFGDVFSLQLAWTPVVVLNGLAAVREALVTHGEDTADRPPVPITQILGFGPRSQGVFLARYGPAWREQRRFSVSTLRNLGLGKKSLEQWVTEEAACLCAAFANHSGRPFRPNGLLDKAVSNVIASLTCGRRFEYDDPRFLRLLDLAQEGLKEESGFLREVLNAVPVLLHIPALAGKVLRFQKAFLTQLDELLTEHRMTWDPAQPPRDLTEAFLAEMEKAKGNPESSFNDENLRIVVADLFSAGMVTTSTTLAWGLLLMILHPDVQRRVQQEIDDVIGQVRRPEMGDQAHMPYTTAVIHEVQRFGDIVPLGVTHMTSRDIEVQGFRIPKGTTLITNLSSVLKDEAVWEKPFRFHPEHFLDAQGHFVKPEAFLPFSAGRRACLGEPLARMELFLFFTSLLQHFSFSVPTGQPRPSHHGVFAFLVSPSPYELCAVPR
CYP3A4, sequence (P08684 whole entry): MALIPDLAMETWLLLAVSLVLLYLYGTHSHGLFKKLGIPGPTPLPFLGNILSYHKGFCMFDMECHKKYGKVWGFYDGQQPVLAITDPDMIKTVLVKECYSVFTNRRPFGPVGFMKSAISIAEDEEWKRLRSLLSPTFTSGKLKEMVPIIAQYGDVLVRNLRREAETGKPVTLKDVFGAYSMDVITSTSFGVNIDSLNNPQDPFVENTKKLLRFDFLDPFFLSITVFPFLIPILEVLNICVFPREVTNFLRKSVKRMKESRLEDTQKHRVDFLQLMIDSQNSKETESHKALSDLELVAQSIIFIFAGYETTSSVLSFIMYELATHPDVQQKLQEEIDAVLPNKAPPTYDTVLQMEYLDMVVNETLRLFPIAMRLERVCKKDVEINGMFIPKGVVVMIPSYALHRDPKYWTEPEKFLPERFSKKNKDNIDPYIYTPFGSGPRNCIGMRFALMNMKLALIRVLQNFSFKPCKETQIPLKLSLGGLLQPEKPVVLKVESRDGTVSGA
T1 sequence (P08684 whole entry): as above
T3 sequence (P11712 whole entry): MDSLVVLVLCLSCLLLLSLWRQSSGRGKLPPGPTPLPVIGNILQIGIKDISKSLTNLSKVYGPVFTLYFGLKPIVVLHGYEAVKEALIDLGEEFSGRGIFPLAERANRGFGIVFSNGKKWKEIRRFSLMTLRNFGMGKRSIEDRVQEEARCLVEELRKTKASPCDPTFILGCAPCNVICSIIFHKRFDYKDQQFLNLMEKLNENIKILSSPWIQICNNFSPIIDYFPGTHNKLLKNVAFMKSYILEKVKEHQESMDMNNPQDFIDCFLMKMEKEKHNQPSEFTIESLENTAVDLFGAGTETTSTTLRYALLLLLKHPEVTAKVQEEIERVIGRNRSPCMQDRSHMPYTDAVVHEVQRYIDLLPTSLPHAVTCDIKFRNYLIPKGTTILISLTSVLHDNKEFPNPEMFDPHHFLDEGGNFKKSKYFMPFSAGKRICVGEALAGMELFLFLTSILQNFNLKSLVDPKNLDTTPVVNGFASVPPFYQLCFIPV

Row | Compound | pIC50 (CYP-P450 3A4) | F (Rat pharmacokinetics; Sprague-Dawley, in vivo) [%] | clearance (Rat pharmacokinetics; Sprague-Dawley, in vivo) [mL/min/kg] | AUCN, i.v. dosing @ 1 mpk (Rat pharmacokinetics; in vivo) [μMhrkg/mg] | AUCN, p.o. dosing @ 2 mpk (Rat pharmacokinetics; in vivo) [μMhrkg/mg] | pIC50 (CYP-P450 2D6) | CYP-3A4 Induction % of Rifampicin response @ 10 μM (human CYP-3A4 enzyme) [%] | P450 CYP-3A4 Time-Dependent Inhibition rate @ 10 μM (#1) (CYP3A4) [min⁻¹] | % Left Assay 2 @ 0 min [1] [%] | % Left Assay 2 @ 2.5 min [1] [%] | % Left Assay 2 @ 5 min [1] [%] | % Left Assay 2 @ 10 min [1] [%] | % Left Assay 2 @ 15 min [1] [%] | % Left Assay 2 @ 30 min [1] | % Left Assay 3 @ 0 min [1] [%] | % Left Assay 3 @ 5 min [1] [%] | % Left Assay 3 @ 10 min [1] [%] | % Left Assay 3 @ 15 min [1] [%] | % Left Assay 3 @ 30 min [1] [%] | % Left Assay 3 @ 60 min [1] | other results
1 | CCC[C@@H](NC(=O)N1C(=O)C(CC)(CC)[C@@H]1Oc1ccc(C(=O)N(C)CCN(C)C)cc1)c1ccc(OC)cc1 [Compound #290, reference compound] | 4.21 | 29 | 114 | 0.28 | 0.081 | 4.41 | 6 | 0.017 | 100 | 99 | 95 | 89 | 82 | 79% and 79 +/− 6% | 100 | 90 | 88 | 85 | 83 | 77% and 77 +/− 4% | Vd (Rat pharmacokinetics; Sprague-Dawley, in vivo): 14.5 L/kg; half-life (Rat pharmacokinetics; Sprague-Dawley, in vivo): 2 h; P450 CYP-3A4 Time-Dependent Inhibition rate @ 10 μM (#2) (CYP3A4): 0.008 min⁻¹; P450 CYP-3A4 Time-Dependent Inhibition rate @ 50 μM (CYP3A4): 0.018 min⁻¹; % Left (+NADPH) @ 0 min [1]: 100%; % Left (+NADPH) @ 5 min [1]: 92%; % Left (+NADPH) @ 10 min [1]: 89%; % Left (+NADPH) @ 15 min [1]: 84%; % Left (+NADPH) @ 30 min [1]: 78%; % Left (+NADPH) @ 60 min [1]: 72% and 72 +/− 0%; % Left (−NADPH) @ 0 min [1]: 89 +/− 5%; % Left (−NADPH) @ 60 min [1]: 83 +/− 1%; pIC50 (CYP-P450 2C9): 4.60
2 | CCC[C@@H](NC(=O)N1C(=O)C(CC)(CC)[C@@H]1Oc1ccc(C(=O)N(CC)CCN(C)C)cc1)c1ccc(OC(F)(F)F)cc1 [Example 1, 2-(S)-[4-(((2-(Dimethylamino)ethyl)ethylamino)carbonyl)phenoxy]-3,3-diethyl-N-[1-(R)-(4-(trifluoromethoxy)phenyl)butyl]-4-oxo-1-azetidinecarboxamide] | 4.34 | 25 | 42 | 0.65 | 0.16 | 4.43 | 5 | 0.005 | 100 | 78 | 78 | 73 | 70 | 67% and 67 +/− 2% | 100 | 101 | 79 | 90 | 100 | 94% and 94 +/− 10% | Vd (Rat pharmacokinetics; Sprague-Dawley, in vivo): 11 L/kg; half-life (Rat pharmacokinetics; Sprague-Dawley, in vivo): 3.1 h; P450 CYP-3A4 Time-Dependent Inhibition rate @ 10 μM (#2) (CYP3A4): 0.008 min⁻¹; P450 CYP-3A4 Time-Dependent Inhibition rate @ 50 μM (CYP3A4): 0.018 min⁻¹; % Left @ 30 min [1]: 78%; % Left (+NADPH) @ 0 min [1]: 100%; % Left (+NADPH) @ 5 min [1]: 104%; % Left (+NADPH) @ 10 min [1]: 99%; % Left (+NADPH) @ 15 min [1]: 96%; % Left (+NADPH) @ 30 min [1]: 91%; % Left (+NADPH) @ 60 min [1]: 90% and 90 +/− 4%; % Left (−NADPH) @ 0 min [1]: 87 +/− 21%; % Left (−NADPH) @ 60 min [1]: 99 +/− 2%; half-life at 1 μM [1]: 1.45 h; pIC50 (CYP-P450 2C9): 4.77
3 | CCC[C@@H](NC(=O)N1C(=O)C(CC)(CC)[C@@H]1Oc1ccc(C(=O)N(CC)CCN(C)C)cc1)c1ccc(C(F)(F)F)cc1 [Example 3, 2-(S)-[4-(((2-(Dimethylamino)ethyl)ethylamino)carbonyl)phenoxy]-3,3-diethyl-N-[1-(R)-(4-(trifluoromethyl)phenyl)butyl]-4-oxo-1-azetidinecarboxamide] | 4.41 | 28 | 113 | 0.24 | 0.069 | 4.39 | 0 | 0.014 | 100 | 107 | 85 | 82 | 82 | 99% and 79 +/− 7% | 100 | 86 | 81 | 75 | 75 | 73% and 73 +/− 0% | Vd (Rat pharmacokinetics; Sprague-Dawley, in vivo, i.v. 1 mpk, mono-L-malic acid salts, read-out: VDss): 29 L/kg; half-life (Rat pharmacokinetics; Sprague-Dawley, in vivo, i.v. 1 mpk, mono-L-malic acid salts, read-out: t1/2 (converted)): 3.7 h; F (Rat pharmacokinetics; oral bioavailability, p.o. 2 mpk vs i.v. 1 mpk): 28%; % Left @ 30 min [1]: 60%; half-life at 1 μM [1]: 0.533 h; pIC50 (CYP-P450 2C9): 5.09
